{"source": "patent EP0187355A1", "about": "“Process for preparing beta-lactam antibiotics” (E.R. Squibb & Sons, Inc., priority 1981, dated 1982)", "assay_in_all_cases": "MIC, agar dilution", "type_in_all_cases": "cell-based", "key": {"[1]": {"tested_on": "Streptococcus agalactiae, 9287", "details": "Streptococcus agalactiae, 9287, 18 h, K-10 agar, 10^4 CFU, 37°C, read-out: M.I.C.", "summary_of_the_method": "(§1)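 Broth cultures grown 18-20 h at 37°C, diluted 1:100 in K-10 broth, applied by multipoint inoculator at 10^4 CFU onto K-10 agar holding twofold compound dilutions, 100 to 0.05 µg/ml final. MIC taken as lowest concentration inhibiting growth.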"}, "[2]": {"tested_on": "Enterobacter cloacae, 8236", "details": "Enterobacter cloacae, 8236, 18 h, K-10 agar, 10^4 CFU, 37°C", "summary_of_the_method": "as §1"}, "Micrococcus luteus, 2495": {"tested_on": "Micrococcus luteus, 2495", "details": "Micrococcus luteus, 2495, 18 h, K-10 agar, 10^4 CFU, 37°C, read-out: M.I.C.", "summary_of_the_method": "as §1"}, "Escherichia coli, 10857": {"tested_on": "Escherichia coli, 10857", "details": "Escherichia coli, 10857, 18 h, K-10 agar, 10^4 CFU, 37°C", "summary_of_the_method": "(§2)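 Inhibition of growth on compound-containing K-10 agar (final 100 to 0.05 µg/ml, twofold series) defined the endpoint, scored after 18 h at 37°C. Spots carried 10^4 CFU, with drug-free growth control plates inoculated before and after test plates.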"}, "[3]": {"tested_on": "Staphylococcus aureus, 1276", "details": "Staphylococcus aureus, 1276; K-10 agar, 10^4 CFU, 37°C, 18 hours; read-out: M.I.C.", "summary_of_the_method": "as §2"}, "[4]": {"tested_on": "Staphylococcus aureus, 10165", "details": "Staphylococcus aureus, 10165; K-10 agar, 10^4 CFU, 37°C, 18 hours; read-out: M.I.C.", "summary_of_the_method": "as §2"}, "[5]": {"tested_on": "Pseudomonas aeruginosa, 9545", "details": "Pseudomonas aeruginosa, 9545, 18 h, K-10 agar, 10^4 CFU, 37°C, read-out: M.I.C.", "summary_of_the_method": "as §2"}, "[6]": {"tested_on": "Enterobacter aerogenes, 10078", "details": "Klebsiella aerogenes, 10078, 18 h, Enterobacter aerogenes, 10078; K-10 agar, 10^4 CFU, 37°C, 18 hours; read-out: M.I.C.", "summary_of_the_method": "as §2"}, "[7]": {"tested_on": "Pseudomonas aeruginosa, 8329", "details": "K-10 agar, 10^4 CFU, 37°C, 18 hours, read-out: M.I.C.", "summary_of_the_method": "as §2"}, "Proteus vulgaris, 9416": {"tested_on": "Proteus vulgaris, 9416", "details": "K-10 agar, 10^4 CFU, 37°C, 18 hours, read-out: M.I.C.", "summary_of_the_method": "as §2"}, "[8]": {"tested_on": "Klebsiella pneumoniae, 9527", "details": "Klebsiella pneumoniae, 9527, 18 h, K-10 agar, 10^4 CFU, 37°C, read-out: M.I.C.", "summary_of_the_method": "as §2"}, "[9]": {"tested_on": "Acinetobacter calcoaceticus, 8333", "details": "Acinetobacter calcoaceticus, 8333, 18 h, K-10 agar, 10^4 CFU, 37°C, read-out: M.I.C.", "summary_of_the_method": "as §2"}, "Escherichia coli, 10896": {"tested_on": "Escherichia coli, 10896", "details": "K-10 agar, 10^4 CFU, 37°C, 18 hours", "summary_of_the_method": "as §2"}, "Escherichia coli, 8294": {"tested_on": "Escherichia coli, 8294", "details": "Escherichia coli, 8294, 18 h, K-10 agar, 10^4 CFU, 37°C", "summary_of_the_method": "as §2"}, "[10]": {"tested_on": "Serratia marcescens, 9783", "details": "Serratia marcescens, 9783, 18 h, K-10 agar, 10^4 CFU, 37°C, read-out: M.I.C.", "summary_of_the_method": "as §2"}, "Salmonella typhosa, 1195": {"tested_on": "Salmonella typhosa, 1195", "details": "Salmonella enterica, TYPHOSA, 18 h, K-10 agar, 10^4 CFU, 37°C", "summary_of_the_method": "as §2"}, "[11]": {"tested_on": "Staphylococcus aureus, 2399", "details": "Staphylococcus aureus, 2399, 18 h, Staphylococcus aureus, 2399; K-10 agar, 10^4 CFU, 37°C, 18 hours; read-out: M.I.C.", "summary_of_the_method": "as §2"}, "Proteus rettgeri, 8479": {"tested_on": "Proteus rettgeri, 8479", "details": "Providencia rettgeri, K-10 agar, 10^4 CFU, 37°C, 18 hours, read-out: M.I.C.", "summary_of_the_method": "as §2"}, "Proteus mirabilis, 3855": {"tested_on": "Proteus mirabilis, 3855", "details": "Proteus mirabilis, 3855, 18 h, K-10 agar, 10^4 CFU, 37°C, read-out: M.I.C.", "summary_of_the_method": "as §2"}, "[12]": {"tested_on": "Klebsiella aerogenes, 10440", "details": "K-10 agar, 10^4 CFU, 37°C, 18 hours, read-out: M.I.C.", "summary_of_the_method": "as §2"}, "Shigella sonnei, 8449": {"tested_on": "Shigella sonnei, 8449", "details": "Shigella sonnei, 8449, 18 h, K-10 agar, 10^4 CFU, 37°C", "summary_of_the_method": "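Overnight broth cultures (37°C, 18–20 h) were diluted 1:100 and spotted onto K-10 agar plates containing twofold compound dilutions (final 100 to 0.05 µg/ml), giving 10^4 CFU per spot. After 18 h at 37°C, MIC was read as the lowest concentration inhibiting growth.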"}, "[13]": {"tested_on": "Streptococcus faecalis, 9011", "details": "Enterococcus faecalis; Streptococcus faecalis, 9011; K-10 agar, 10^4 CFU, 37°C, 18 hours; read-out: M.I.C.", "summary_of_the_method": "as §2"}, "Escherichia coli, 10909": {"tested_on": "Escherichia coli, 10909", "details": "K-10 agar, 10^4 CFU, 37°C, 18 hours", "summary_of_the_method": "as §2"}, "[14]": {"tested_on": "Citrobacter freundii, 9518", "details": "K-10 agar, 10^4 CFU, 37°C, 18 hours, read-out: M.I.C.", "summary_of_the_method": "as §2"}, "[15]": {"tested_on": "Staphylococcus aureus, 2400", "details": "Staphylococcus aureus, 2400; K-10 agar, 10^4 CFU, 37°C, 18 hours; read-out: M.I.C.", "summary_of_the_method": "as §2"}}, "note": "Structures can show the parent of a compound that is named as a salt.", "data": [{"compound": "CCN1CCN(C(=O)N[C@@H](C(=O)N[C@@H]2C(=O)N(S(=O)(=O)O)[C@@H]2C)c2ccccc2)C(=O)C1=O", "note": "(relative stereo) [Example 22, [3S-[3α(R*),4α]]-3-[[[[(4-ethyl-2,3-dioxo-1-piperazinyl)carbonyl]amino]phenylacetyl]-amino]-4-methyl-2-oxo-1-azetidinesulfonic acid, potassium salt]", "values": [{"measurement": "MIC", "setting": "[1]", "value": 6.3, "unit": "µg/mL"}, {"measurement": "MIC", "setting": "[2]", "value": 0.8, "unit": "µg/mL"}, {"measurement": "MIC", "setting": "Micrococcus luteus, 2495", "value": 6.3, "unit": "µg/mL"}, {"measurement": "MIC", "setting": "Escherichia coli, 10857", "value": 0.1, "unit": "µg/mL"}, {"measurement": "MIC", "setting": "[3]", "value": 6.3, "unit": "µg/mL"}, {"measurement": "MIC", "setting": "[4]", "value": 100, "unit": "µg/mL"}, {"measurement": "MIC", "setting": "[5]", "value": 6.3, "unit": "µg/mL"}, {"measurement": "MIC", "setting": "[6]", "value": 6.3, "unit": "µg/mL"}, {"measurement": "MIC", "setting": "[7]", "value": 12.5, "unit": "µg/mL"}, {"measurement": "MIC", "setting": "Proteus vulgaris, 9416", "value": "< 0.05", "unit": "µg/mL"}, {"measurement": "MIC", "setting": "[8]", "value": 0.1, "unit": "µg/mL"}, {"measurement": "MIC", "setting": "[9]", "value": 12.5, "unit": "µg/mL"}, {"measurement": "MIC", "setting": "Escherichia coli, 10896", "value": 1.6, "unit": "µg/mL"}, {"measurement": "MIC", "setting": "Escherichia coli, 8294", "value": 3.1, "unit": "µg/mL"}, {"measurement": "MIC", "setting": "[10]", "value": 6.3, "unit": "µg/mL"}, {"measurement": "MIC", "setting": "Salmonella typhosa, 1195", "value": 0.4, "unit": "µg/mL"}, {"measurement": "MIC", "setting": "[11]", "value": 6.3, "unit": "µg/mL"}, {"measurement": "MIC", "setting": "Proteus rettgeri, 8479", "value": 0.2, "unit": "µg/mL"}, {"measurement": "MIC", "setting": "Proteus mirabilis, 3855", "value": 0.4, "unit": "µg/mL"}, {"measurement": "MIC", "setting": "[12]", "value": 12.5, "unit": "µg/mL"}, {"measurement": "MIC", "setting": "Shigella sonnei, 8449", "value": 1.6, "unit": "µg/mL"}, {"measurement": "MIC", "setting": "[13]", "value": "> 100", "unit": "µg/mL"}, {"measurement": "MIC", "setting": "Escherichia coli, 10909", "value": 0.4, "unit": "µg/mL"}, {"measurement": "MIC", "setting": "[14]", "value": 3.1, "unit": "µg/mL"}, {"measurement": "MIC", "setting": "[15]", "value": 25, "unit": "µg/mL"}]}]}
